Experimental findings from patent publication US20250340557A1, “PYRIMIDINE DERIVATIVE” (ASKA PHARMACEUTICAL CO., LTD., priority 2022, published 2025) are described below.

Broadly, the IC50 is the concentration that gives 50% inhibition.

In the first experiment the target is T1, human mPGES-1 (Homo sapiens, UniProt O14684).
T1 construct: made in house; host or cells: COS-1 cells (transient transfection; microsomal fraction used as enzyme)
T1 sequence (O14684 1-152): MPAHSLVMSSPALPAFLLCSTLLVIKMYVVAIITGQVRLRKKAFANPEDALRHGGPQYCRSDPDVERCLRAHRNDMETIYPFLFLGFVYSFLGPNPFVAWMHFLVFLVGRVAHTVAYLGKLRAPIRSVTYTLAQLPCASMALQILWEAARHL
Briefly: Test for mPGES-1 inhibitory activity (microsomal enzyme, PGE2 EIA). It is filed as biochemical. The settings on record: microsomes from COS-1 cells transfected with human mPGES-1 cDNA; substrate PGH2 1 μM; 4° C., 4 minutes; PGE2 measured by EIA; read-out: h mPGES1 IC50. In a few lines: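 Enzyme source was microsomes from COS-1 cells transiently expressing human mPGES-1, in sodium phosphate pH 7.2 with 2.5 mM GSH, 1 mM EDTA and 2% DMSO final. After a 15 min preincubation with compound at 4 °C, 1 μM PGH2 (final) reacted for 4 min at 4 °C.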
Regarding `Cc1cccc2ccc(N3CCC(F)(C(=O)NCc4ccc(C(F)(F)F)c(-c5nc(C(F)(F)F)cc(=O)[nH]5)c4F)CC3)nc12` [Example 15, 4-fluoro-N-{2-fluoro-3-[6-oxo-4-(trifluoromethyl)-1,6-dihydropyrimidin-2-yl]-4-(trifluoromethyl)benzyl}-1-(8-methylquinolin-2-yl)piperidine-4-carboxamide], the IC50 was below 1 nM.
Still for that read-out and setting: as for `Cc1nc(-c2c(C(F)(F)F)ccc(CNC(=O)C3CCN(c4ccc(Cl)c(Cl)c4)CC3)c2F)[nH]c(=O)c1F` [Example 73, 1-(3,4-dichlorophenyl)-N-[2-fluoro-3-(5-fluoro-4-methyl-6-oxo-1,6-dihydropyrimidin-2-yl)-4-(trifluoromethyl)benzyl]piperidine-4-carboxamide], the figure is 4.4 nM; as for `O=C(NCc1ccc(C(F)(F)F)c(-c2nc(C(F)(F)F)cc(=O)[nH]2)c1F)C1CCN(c2ccc(F)cc2)CC1` [Example 58, N-{2-fluoro-3-[6-oxo-4-(trifluoromethyl)-1,6-dihydropyrimidin-2-yl]-4-(trifluoromethyl)benzyl}-1-(4-fluorophenyl)piperidine-4-carboxamide], below 1 nM.
Turning to `Cc1cc(=O)[nH]c(-c2c(C(F)(F)F)ccc(CNC(=O)C3CCN(c4ncc(Cl)cc4Cl)CC3)c2F)n1` [Example 46, 1-(3,5-dichloropyridin-2-yl)-N-[2-fluoro-3-(4-methyl-6-oxo-1,6-dihydropyrimidin-2-yl)-4-(trifluoromethyl)benzyl]piperidine-4-carboxamide], the IC50 amounted to 49 nM.
The same measure, in the same setting: the figure for `Cc1cc(=O)[nH]c(-c2c(C(F)(F)F)ccc(CNC(=O)C3CCN(c4ccc(Cl)c(Cl)c4)CC3)c2F)n1` [Example 86, 1-(3,4-dichlorophenyl)-N-[2-fluoro-3-(4-methyl-6-oxo-1,6-dihydropyrimidin-2-yl)-4-(trifluoromethyl)benzyl]piperidine-4-carboxamide] is below 1 nM; for `Cc1nc(-c2c(C(F)(F)F)ccc(CNC(=O)[C@H]3CC[C@H](OCc4cc(F)cc(Cl)c4)CC3)c2F)[nH]c(=O)c1F` [Example 131, trans-4-[(3-chloro-5-fluorobenzyl)oxy]-N-[2-fluoro-3-(5-fluoro-4-methyl-6-oxo-1,6-dihydropyrimidin-2-yl)-4-(trifluoromethyl)benzyl]cyclohexane-1-carboxamide] it is below 1 nM.
Same read-out and setting: as for `O=C(NCc1ccc(C(F)(F)F)c(-c2nc(C(F)(F)F)cc(=O)[nH]2)c1F)C1CCN(c2ccc(Cl)cc2)CC1` [Example 64, 1-(4-chlorophenyl)-N-{2-fluoro-3-[6-oxo-4-(trifluoromethyl)-1,6-dihydropyrimidin-2-yl]-4-(trifluoromethyl)benzyl}piperidine-4-carboxamide], the figure is below 1 nM.
Still for that read-out and setting: as for `O=C(NCc1ccc(C(F)(F)F)c(-c2nc(C(F)(F)F)cc(=O)[nH]2)c1F)C1CCN(c2cccc(Cl)c2)CC1` [Example 62, 1-(3-chlorophenyl)-N-{2-fluoro-3-[6-oxo-4-(trifluoromethyl)-1,6-dihydropyrimidin-2-yl]-4-(trifluoromethyl)benzyl}piperidine-4-carboxamide], the figure is below 1 nM.
`O=c1cc(C(F)(F)F)nc(-c2c(C(F)(F)F)ccc(CNC(=O)[C@H]3C[C@H](OCc4ccccc4)C3)c2F)[nH]1` [Example 134, trans-3-(benzyloxy)-N-{2-fluoro-3-[6-oxo-4-(trifluoromethyl)-1,6-dihydropyrimidin-2-yl]-4-(trifluoromethyl)benzyl}cyclobutane-1-carboxamide]: the IC50 was below 10 nM.
The same measure, in the same setting: as for `Cc1ccc(N2CCC(C(=O)NCc3ccc(C(F)(F)F)c(-c4nc(C(F)(F)F)cc(=O)[nH]4)c3F)CC2)cc1` [Example 61, N-{2-fluoro-3-[6-oxo-4-(trifluoromethyl)-1,6-dihydropyrimidin-2-yl]-4-(trifluoromethyl)benzyl}-1-(4-methylphenyl)piperidine-4-carboxamide], the figure is 0.87 nM.
On the same count and under the same terms, the figure for `CCc1cc(=O)[nH]c(-c2c(C(F)(F)F)ccc(CNC(=O)C3CCN(c4ccc5cccc(C)c5n4)CC3)c2F)n1` [Example 10, N-[3-(4-ethyl-6-oxo-1,6-dihydropyrimidin-2-yl)-2-fluoro-4-(trifluoromethyl)benzyl]-1-(8-methylquinolin-2-yl)piperidine-4-carboxamide] is below 1 nM; for `Cc1nc(-c2c(C(F)(F)F)ccc(CNC(=O)C3CCN(c4ccc(Cl)cc4)CC3)c2F)[nH]c(=O)c1F` [Example 77, 1-(4-chlorophenyl)-N-[2-fluoro-3-(5-fluoro-4-methyl-6-oxo-1,6-dihydropyrimidin-2-yl)-4-(trifluoromethyl)benzyl]piperidine-4-carboxamide] it is 16 nM; for `O=C(NCc1ccc(C(F)(F)F)c(-c2nc(C(F)(F)F)cc(=O)[nH]2)c1F)C1CCN(c2cccc(Cl)c2Cl)CC1` [Example 69, 1-(2,3-dichlorophenyl)-N-{2-fluoro-3-[6-oxo-4-(trifluoromethyl)-1,6-dihydropyrimidin-2-yl]-4-(trifluoromethyl)benzyl}piperidine-4-carboxamide] it is 8.4 nM.
Consider `O=C(NCc1ccc(C(F)(F)F)c(-c2nc3c(c(=O)[nH]2)CCC3)c1F)C1CCN(c2ccc(Cl)cc2)CC1` [Example 89, 1-(4-chlorophenyl)-N-[2-fluoro-3-(4-oxo-4,5,6,7-tetrahydro-3H-cyclopenta[d]pyrimidin-2-yl)-4-(trifluoromethyl)benzyl]piperidine-4-carboxamide], for which the IC50 is below 1 nM.

The experiment is the same for the next values; noted with them: microsomes of COS-1 cells transfected with human mPGES-1 cDNA; PGH2 1 μM; 4° C., 4 minutes; PGE2 by EIA; read-out: h mPGES1 IC50.
On to `O=C(NCc1ccc(C(F)(F)F)c(-c2nc(C(F)(F)F)cc(=O)[nH]2)c1F)c1cccc(Cl)c1Cl` [Example 274, 2,3-dichloro-N-{2-fluoro-3-[6-oxo-4-(trifluoromethyl)-1,6-dihydropyrimidin-2-yl]-4-(trifluoromethyl)benzyl}benzamide], for which the IC50 is below 1 nM.
For `O=c1cc(C(F)F)nc(-c2c(C(F)(F)F)ccc(CNC(=O)[C@H]3C[C@H](OCc4cc(F)cc(F)c4)C3)c2F)[nH]1` [Example 170, trans-3-[(3,5-difluorobenzyl)oxy]-N-{3-[4-(difluoromethyl)-6-oxo-1,6-dihydropyrimidin-2-yl]-2-fluoro-4-(trifluoromethyl)benzyl}cyclobutane-1-carboxamide], the IC50 was determined as 1.3 nM.
On the same count and under the same terms, the figure for `O=c1cc(C(F)F)nc(-c2c(C(F)(F)F)ccc(CNC(=O)[C@H]3C[C@H](OCc4ccccc4Cl)C3)c2F)[nH]1` [Example 161, trans-3-[(2-chlorobenzyl)oxy]-N-{3-[4-(difluoromethyl)-6-oxo-1,6-dihydropyrimidin-2-yl]-2-fluoro-4-(trifluoromethyl)benzyl}cyclobutane-1-carboxamide] is below 1 nM; for `O=c1cc(C(F)(F)F)nc(-c2c(C(F)(F)F)ccc(CNC(=O)[C@H]3C[C@H](OCc4cccc(Cl)c4F)C3)c2F)[nH]1` [Example 155, trans-3-[(3-chloro-2-fluorobenzyl)oxy]-N-{2-fluoro-3-[6-oxo-4-(trifluoromethyl)-1,6-dihydropyrimidin-2-yl]-4-(trifluoromethyl)benzyl}cyclobutane-1-carboxamide] it is below 1 nM; for `Cc1nc(-c2c(C(F)(F)F)ccc(CNC(=O)[C@H]3C[C@H](OCc4cccc(C(F)(F)F)c4)C3)c2F)[nH]c(=O)c1F` [Example 216, trans-N-[2-fluoro-3-(5-fluoro-4-methyl-6-oxo-1,6-dihydropyrimidin-2-yl)-4-(trifluoromethyl)benzyl]-3-{[3-(trifluoromethyl)benzyl]oxy}cyclobutane-1-carboxamide] it is 16 nM.
